Data taken from patent US20170197935A1, “INHIBITORS OF DNA GYRASE FOR THE TREATMENT OF BACTERIAL INFECTIONS” (Vitas Pharma Research Private Limited, priority 2012, published 2017).
Converted amounts (≈) assume the structure as drawn.

How the values were obtained:
[1] = tested on: Methicillin resistant Staphylococcus aureus (ATCC 33591); experiment: MIC by microbroth dilution, MRSA ATCC 33591; type: cell-based; conditions: ATCC33591, Formula I compounds, read-out: MIC Methicillin resistant Staphylococcus aureus (ATCC 33591)
Summary of the method: (§1)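 Minimum inhibitory concentrations come from a microdilution assay in broth done to NCCLS M07-08 specifications.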

[2] = tested on: K. pneumoniae (ATCC 700603); experiment: MIC by microbroth dilution, K. pneumoniae ATCC 700603; type: cell-based; conditions: Klebsiella pneumoniae, ATCC700603, Formula I compounds
Summary of the method: as §1

E. coli 86 = experiment: MIC against FQ resistant clinical strain E. coli 86; type: cell-based; conditions: Escherichia coli, fluoroquinolone resistant clinical strain, read-out: MIC against FQ resistant strains, E. coli 86
Procedure: (§2) The compounds were tested by the microbroth dilution method (National committee for Clinical Laboratory Standards, 2011, M07-08) and the Minimum Inhibitory Concentration (MIC) was determined.

MRSA E9749 = experiment: MIC against FQ resistant clinical strain MRSA E9749; type: cell-based; conditions: Staphylococcus aureus, fluoroquinolone resistant clinical strain, read-out: MIC against FQ resistant strains, MRSA E9749
Procedure: (§3) Shown below are the microbiological activities of representative compounds of Formula I of the invention. The compounds were tested by the microbroth dilution method (National committee for Clinical Laboratory Standards, 2011, M07-08) and the Minimum Inhibitory Concentration (MIC) was determined.
(§4) To test if compounds are able to overcome fluoroquinolone resistance, we have determined the MICS against Fluoroquinolone (FQ) resistant clinical strains of MRSA and E. coli.

[3] = tested on: Streptococcus pneumoniae (ATCC 6301); experiment: MIC by microbroth dilution, Streptococcus pneumoniae ATCC 6301; type: cell-based; conditions: ATCC6301
Procedure: (§5) Shown below are the microbiological activities of representative compounds of Formula I of the invention. The compounds were tested by the microbroth dilution method (National committee for Clinical Laboratory Standards, 2011, […]-08) and the Minimum Inhibitory Concentration (MIC) was determined.

hERG = hERG (Homo sapiens, UniProt Q12809); experiment: biochemical
hERG, sequence (Q12809 whole entry): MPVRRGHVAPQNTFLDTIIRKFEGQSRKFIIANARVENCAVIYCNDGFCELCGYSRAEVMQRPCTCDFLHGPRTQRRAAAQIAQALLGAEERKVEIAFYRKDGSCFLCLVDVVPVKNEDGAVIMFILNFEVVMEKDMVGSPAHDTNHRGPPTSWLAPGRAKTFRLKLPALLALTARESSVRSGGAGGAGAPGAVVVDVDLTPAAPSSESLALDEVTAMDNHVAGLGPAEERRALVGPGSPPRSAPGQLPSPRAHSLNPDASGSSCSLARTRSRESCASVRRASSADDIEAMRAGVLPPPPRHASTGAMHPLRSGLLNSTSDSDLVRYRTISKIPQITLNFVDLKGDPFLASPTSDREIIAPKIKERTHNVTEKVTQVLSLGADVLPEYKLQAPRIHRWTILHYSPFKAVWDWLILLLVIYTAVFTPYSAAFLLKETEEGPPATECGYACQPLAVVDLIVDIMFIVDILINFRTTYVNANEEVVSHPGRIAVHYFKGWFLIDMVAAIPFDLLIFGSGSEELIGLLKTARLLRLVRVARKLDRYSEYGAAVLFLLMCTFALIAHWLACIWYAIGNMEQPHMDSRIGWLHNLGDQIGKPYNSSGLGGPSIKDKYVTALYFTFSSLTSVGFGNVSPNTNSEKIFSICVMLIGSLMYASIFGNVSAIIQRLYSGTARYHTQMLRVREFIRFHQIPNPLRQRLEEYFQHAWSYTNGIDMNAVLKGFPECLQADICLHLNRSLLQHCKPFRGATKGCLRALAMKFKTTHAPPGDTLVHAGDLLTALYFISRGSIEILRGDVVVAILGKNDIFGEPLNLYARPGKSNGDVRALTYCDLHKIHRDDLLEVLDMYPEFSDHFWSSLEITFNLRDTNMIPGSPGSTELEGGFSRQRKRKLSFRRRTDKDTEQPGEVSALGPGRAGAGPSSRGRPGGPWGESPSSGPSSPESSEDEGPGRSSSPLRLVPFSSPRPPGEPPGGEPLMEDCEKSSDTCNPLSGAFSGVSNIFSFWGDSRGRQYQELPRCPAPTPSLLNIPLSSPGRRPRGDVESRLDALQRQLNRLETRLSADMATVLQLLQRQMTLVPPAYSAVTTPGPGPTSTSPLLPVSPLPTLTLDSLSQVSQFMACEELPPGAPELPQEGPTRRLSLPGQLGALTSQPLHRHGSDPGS
Procedure: To test the ability of the VT-03 compounds to bind the hERG channel, membranes expressing the hERG channel were incubated with radiolabeled Astemizole and displacement of the labeled ligand in the presence of compounds was measured.
To test the ability of the VT-03 compounds (of Formula II) to bind the hERG channel, membranes expressing the hERG channel were incubated with radiolabeled Astemizole and displacement of the labeled ligand in the presence of compounds was measured.

E. coli (ATCC 25922) = experiment: MIC by microbroth dilution, E. coli ATCC 25922; type: cell-based; conditions: Escherichia coli, ATCC25922, Formula I compounds, read-out: MIC E. coli (ATCC 25922)
Summary of the method: as §1

[4] = tested on: Moraxella catarrhalis (ATCC 8176); experiment: MIC by microbroth dilution, Moraxella catarrhalis ATCC 8176; type: cell-based; conditions: ATCC8176
Procedure: as §5

E. coli E1851 = experiment: MIC against FQ resistant clinical strain E. coli E1851; type: cell-based; conditions: Escherichia coli, fluoroquinolone resistant clinical strain, read-out: MIC against FQ resistant strains, E. coli E1851
Procedure: as §2

MRSA 33591 = experiment: Mutation prevention concentration against MRSA 33591; type: cell-based
Procedure: The mutation prevention concentration or the concentration above which mutants are unlikely to be selected, was determined based on published protocols (Antimicrobial Agents and Chemotherapy, 45, 433-438, 2001).

E. coli U1306 = experiment: MIC against FQ resistant clinical strain E. coli U1306; type: cell-based; conditions: Escherichia coli, fluoroquinolone resistant clinical strain, read-out: MIC against FQ resistant strains, E. coli U1306
Procedure: as §2

MRSA E9823 = experiment: MIC against FQ resistant clinical strain MRSA E9823; type: cell-based; conditions: Staphylococcus aureus, fluoroquinolone resistant clinical strain, read-out: MIC against FQ resistant strains, MRSA E9823
Procedure: as §3, §4

[5] = tested on: Staphylococcus aureus (ATCC 29213); experiment: MIC by microbroth dilution, Staphylococcus aureus ATCC 29213; type: cell-based; conditions: ATCC29213
Procedure: as §5

[6] = tested on: S. aureus (MRSA ATCC 33591); experiment: Systemic infection model in mice against S. aureus (MRSA ATCC 33591); type: in vivo; conditions: 10 mg/kg i.v. one hour after infection and again 4 hours later, 15× lethal dose MRSA ATCC33591 intraperitoneally
Procedure: In order to evaluate the in vivo efficacy of the scaffold, we tested representative compounds for activity in the systemic infection model in mice (Antimicrobial Agents and Chemotherapy, 47, 2507-2512, 2003). In this model, a 15× medial lethal dose of the bacteria (MRSA ATCC33591) is administered to mice intraperiotoneally. An hour later, the compound is administered i.v. and again 4 hours later. VT-03-00061, was efficacious with a 50% survival at a dose of 10 mg/kg in this model.

[7] = tested on: Enterococcus faecalis (ATCC 29212); experiment: MIC by microbroth dilution, Enterococcus faecalis ATCC 29212; type: cell-based; conditions: ATCC29212
Procedure: as §5

E. coli Gyrase = biological target: T1, E. coli Gyrase (Escherichia coli, UniProt P0AES4+P0AES6); experiment: in vitro Gyrase supercoiling assay (Inspiralis kit); type: biochemical; conditions: 1 hour at 37° C., read-out: % inhibition of DNA supercoiling activity
T1 construct: purchased Inspiralis
T1 sequence (P0AES4 whole entry, one chain of several): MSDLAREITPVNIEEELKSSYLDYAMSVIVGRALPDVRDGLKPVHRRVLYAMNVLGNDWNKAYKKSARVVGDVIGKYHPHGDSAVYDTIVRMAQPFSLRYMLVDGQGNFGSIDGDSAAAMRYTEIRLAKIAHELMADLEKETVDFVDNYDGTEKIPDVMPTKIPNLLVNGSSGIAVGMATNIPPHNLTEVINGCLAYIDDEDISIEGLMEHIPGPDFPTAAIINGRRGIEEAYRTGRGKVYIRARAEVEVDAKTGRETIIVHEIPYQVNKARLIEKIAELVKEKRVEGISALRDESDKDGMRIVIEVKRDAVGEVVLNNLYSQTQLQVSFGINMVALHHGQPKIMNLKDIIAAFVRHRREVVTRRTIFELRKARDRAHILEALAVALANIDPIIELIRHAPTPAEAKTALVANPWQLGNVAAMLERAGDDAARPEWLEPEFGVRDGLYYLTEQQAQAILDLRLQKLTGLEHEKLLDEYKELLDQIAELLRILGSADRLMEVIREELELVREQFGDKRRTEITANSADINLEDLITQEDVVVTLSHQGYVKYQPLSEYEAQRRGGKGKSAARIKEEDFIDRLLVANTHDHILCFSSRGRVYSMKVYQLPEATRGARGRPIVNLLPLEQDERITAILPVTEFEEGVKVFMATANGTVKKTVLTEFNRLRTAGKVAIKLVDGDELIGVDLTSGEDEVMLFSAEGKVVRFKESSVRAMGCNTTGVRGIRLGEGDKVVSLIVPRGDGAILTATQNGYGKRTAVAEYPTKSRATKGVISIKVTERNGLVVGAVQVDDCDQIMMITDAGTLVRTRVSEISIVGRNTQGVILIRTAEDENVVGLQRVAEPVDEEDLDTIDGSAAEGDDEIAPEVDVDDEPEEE
Procedure: To test for target specificity, the activity of compounds was evaluated in an in vitro Gyrase assay using recombinant Gyrase protein as per the instructions of the assay kit (Inspiralis). The assay measures the ability of E. coli Gyrase to convert relaxed plasmid DNA into the supercoiled form. The enzyme is incubated with the substrate (relaxed DNA) in the presence and absence of compounds for 1 hour at 37° C. and the DNA is run on a gel at low voltage for several hours. The gel is then stained with Ethidium bromide and DNA in the different forms is quantified using DNA imaging and quantification software (Image Lab). The activity of the enzyme is proportional to the amount of supercoiled form detected.

[8] = Single dose pharmacokinetics in male Swiss albino mice; type: in vivo; conditions: for AUC(0-inf) / Cmax / half-life: mouse, in vivo, single dose
Procedure: (§6) Compounds were dosed to male Swiss albino mice to determine the pharmacokinetic profiles.
as §6

E. coli U5690 = experiment: MIC against FQ resistant clinical strain E. coli U5690; type: cell-based; conditions: Escherichia coli, fluoroquinolone resistant clinical strain, read-out: MIC against FQ resistant strains, E. coli U5690
Procedure: as §2

Structure (SMILES): COc1ccc2ncc(C#N)c(CCN3CCC(NCc4ccc(C)c([N+](=O)[O-])c4)CC3)c2c1 [VT-03-00061]
- MIC [1]: 0.015 µg/mL (≈ 0.0326 µM)
- MIC [2]: 8 µg/mL (≈ 17.4 µM)
- MIC (E. coli 86): 2 µg/mL (≈ 4.35 µM)
- MIC (MRSA E9749): 0.015 µg/mL (≈ 0.0326 µM)
- MIC [3]: 0.015 µg/mL (≈ 0.0326 µM)
- IC50 (hERG): > 30 µM
- MIC (E. coli (ATCC 25922)): 1 µg/mL (≈ 2.18 µM)
- MIC [4]: 0.12 µg/mL (≈ 0.261 µM)
- MIC (E. coli E1851): 0.5 µg/mL (≈ 1.09 µM)
- Mutation prevention concentration (MRSA 33591): 0.12 µg/mL
- MIC (E. coli U1306): 2 µg/mL (≈ 4.35 µM)
- MIC (MRSA E9823): ≤ 0.0075 µg/mL
- MIC [5]: 0.015 µg/mL (≈ 0.0326 µM)
- survival [6]: 50%
- MIC [7]: 0.25 µg/mL (≈ 0.544 µM)
- inhibition at 0.1 µM (E. coli Gyrase; 0.1 μM compound): 99.8%
- inhibition at 1 µM (E. coli Gyrase; 1 μM compound): 99.7%
- oral bioavailability (in words) [8]: orally bioavailable
- AUC(0-inf) ([8]; intravenous, 5 mg/kg b.w.): 368 ng·h/mL
- Cmax ([8]; intravenous, 5 mg/kg b.w.): 400 ng/mL
- half-life ([8]; intravenous, 5 mg/kg b.w.): 1.64 h
- AUC(0-inf) ([8]; oral, 10 mg/kg b.w.): 104 ng·h/mL
- Cmax ([8]; oral, 10 mg/kg b.w.): 51.5 ng/mL
- half-life ([8]; oral, 10 mg/kg b.w.): 1.74 h
- F % (Oral bioavaialbility) ([8]; oral 10 mg/kg vs intravenous 5 mg/kg): 11.51%
- MIC (E. coli U5690): 2 µg/mL (≈ 4.35 µM)
